Source: patent US12071431B2, “Pyridin-sulfonamide compounds for the treatment of conditions related to interleukin 1 beta” (ALLINKY BIOPHARMA, priority 2018, dated 2024)

Experiments:
IL-1β = experiment: In vitro inhibition of IL-1β in human primary macrophages challenged with LPS (ELISA); format: cell-based; details: Primary macrophage, 2 hours compound pre-treatment, 100 ng/mL LPS, 16 hours, read-out: IC50 (IL-Iβ inhibition)
Description: Example 12—In Vitro Inhibition of IL-1β in Human Primary Macrophages Challenged with LPS
5 mL of RPMI media without serum (1:1) was added to a sample of 5 mL of human whole blood in EDTA or sodium citrate and mixed well by inversion. 3 mL of Histopaque-1077 was added to a 15 mL conical centrifuge tube and brought to room temperature. Using a transfer pipette, 10 mL of the blood-RPMI mixture was carefully layered onto the Histopaque-1077 and was centrifuged at 400×g for exactly 30 minutes at room temperature.
After centrifugation, a pasteur pipette was used to aspirate the upper layer to within 0.5 cm of the opaque interface containing the mononuclear cells. The upper layer was discarded. With a Pasteur pipette, the opaque interface was carefully transferred to a clean conical centrifuge tube. 5 mL RPMI was added to the tube and mixed by inversion, followed by centrifugation at 250×g for exactly 10 minutes. The supernatant was aspirated and discarded.
The leukocyte pellet was re-suspended with 5 mL RPMI and mixed gently with a Pasteur pipette, followed by centrifugation at 250×g for exactly 10 minutes. The pellet was washed 3× with PBS and re-suspended in RPMI medium.
2×10^5 PBMCs at a total volume of 200 μL/well were plated into a 96-well plate and incubated for 4 hrs at 37° C. in a CO2 incubator to allow the monocytes to settle, leaving the lymphocytes in suspension. Following incubation, 100 μL were aspirated out of each well to ensure removal of the lymphocyte population.
The monocytes were differentiated to macrophages by addition of 200 ng/mL of recombinant human GM-CSF (4 mg/mL stock) and incubated at 37° C./5% CO2 for 6 days. The medium was changed every two days by removing half the volume of medium in the well and re-supplementing with fresh RPMI complete medium and recombinant human GM-CSF.
Following differentiation, the cells were treated in duplicates with a compound according to the invention in a total volume of 50 μL, maintaining a final DMSO percentile of 0.5%. The plate was transferred to an incubator maintained at 37° C./5% CO2 for 2 hours. The cells were stimulated with 100 ng/mL of LPS (4×) (1 mg/mL stock) in a total volume of 50 μL.
The plate was transferred to an incubator maintained at 37° C./5% CO2 for 16 hours.
• 1. Each well from a pre-coated ELISA plate was aspirated and washed with wash buffer (0.05% Tween 20 in PBS; pH 7.2-7.4) by filling each well with wash buffer (300 μL). The process was repeated two times for a total of three washes. The liquid was removed completely at each step. After the last wash, any remaining wash buffer was removed. • 2. Plates were blocked by adding 300 μL of block buffer (1% BSA in PBS) to each well and incubated at room temperature for 1 hour. • 3. The aspiration/wash as in step 1 was repeated. • 4. 100 μL of sample or standard prepared in reagent diluent (0.1% BSA, 0.05% Tween 20 in PBS pH7.2-7.4) was added. The wells were covered with an adhesive strip and incubated for 2 hours at room temperature. • 5. The aspiration/wash as in step 1 was repeated. • 6. 100 μL of detection antibody, diluted in reagent diluent, was added to each well. The wells were covered with a new adhesive strip and incubated for 2 hours at room temperature. • 7. The aspiration/wash as in step 1 was repeated. • 8. 100 μL of the working dilution (1:200 from the stock) and streptavidin-HRP was added to each well. The plate was covered and incubated for 20 minutes at room temperature. • 9. 100 μL of substrate solution (1:1 mixture of H2O2 and tetramethylbenzidine) was added to each well and incubated for 20 minutes at room temperature. • 10.50 μL of stop solution (2N H2SO4) was added to each well. The plate was tapped gently to ensure thorough mixing. • 11. The optical density of each well was determined immediately using a microplate reader (Spectramax Plus) set to 450 nm. Cytokine Viability Assessment […]

[1] = system: human primary macrophages; experiment: Cell viability assessment (CellTiter-Glo) in the macrophage assay plates; format: cell-based; design: concentration or dose not given beside the values; details: CellTiter-Glo luminescent assay
Description: 2×10^5 PBMCs at a total volume of 200 μL/well were plated into a 96-well plate and incubated for 4 hrs at 37° C. in a CO2 incubator to allow the monocytes to settle, leaving the lymphocytes in suspension. Following incubation, 100 μL were aspirated out of each well to ensure removal of the lymphocyte population. The monocytes were differentiated to macrophages by addition of 200 ng/mL of recombinant human GM-CSF (4 mg/mL stock) and incubated at 37° C./5% CO2 for 6 days. The medium was changed every two days by removing half the volume of medium in the well and re-supplementing with fresh RPMI complete medium and recombinant human GM-CSF. Following differentiation, the cells were treated in duplicates with a compound according to the invention in a total volume of 50 μL, maintaining a final DMSO percentile of 0.5%. The plate was transferred to an incubator maintained at 37° C./5% CO2 for 2 hours. The cells were stimulated with 100 ng/mL of LPS (4×) (1 mg/mL stock) in a total volume of 50 μL. The plate was transferred to an incubator maintained at 37° C./5% CO2 for 16 hours. 100 μl/well volume of CellTiter-Glo® luminescent reagent was added to the assay plates and incubated at room temperature for 30 mins on a plate shaker. Following incubation, the luminescent signal of each well was determined using a microplate reader (Perkin Elmer ENVISION 2104). Cytotoxicity of the test compounds was determined utilizing the following formula: % Cytotoxicity=100−(100*(Average Test Compound Counts−Average Negative Control Counts)/(Average Positive Control Counts−Average Negative Control Counts)) All of the “Counts” stated in this formula are derived from “luminescent signal” determined as described for the cytokine viability assessment.

Bleomycin-induced IPF = experiment: Treatment of bleomycin-induced IPF in mice; format: in vivo
Text: Example 16: Effect of Compound 7 in the Treatment of Bleomycin-Induced IPF Timed pregnant mice (n=30) were selected for the study. The delivered pups were subcutaneously injected on the post-natal day 2 (PND-2) with 1.5 U/kg of Bleomycin (intra-tracheal) and were allowed to remain with the mother until they reached the weanling age. After weanling, the male pups were selected and fed with 60% kcal fat diet (Research Diet-D12492) for the next week. All the animals were observed twice daily for clinical signs. Mice were orally dosed with vehicle, test compounds and reference compound (Pirfenidone) twice daily morning (9.00 AM) and evening before the start of dark cycle (6:00 PM) from day 0 to 14. Animal body weight measurements were made daily for the complete duration of the experiment. Animals were dosed for 14 days with the test and reference compounds. Lung hydroxyproline level was estimated before the treatment start and on the termination day 14. Total cell count and differential leukocyte count in BALF were measured before the treatment start and on […]. Histopathology analysis in the form of H&E Ashcroft score was performed for the lung tissues. All the H&E stained tissue sections were examined by light microscopy. As per the below grading system (Kleiner et al., 2005) in 200× objective lens, IPF scoring was carried out. Collagen Proportion Area (% CPA) Measurement: Masson's Trichrome Staining All the Masson's trichrome stained tissue sections were examined by light microscopy in 100× objective lens. Randomly selected five fields (approx 684.85 μm×917.11m per field) from each lung were subjected to collagen proportion area measurement by using Image Pro Premier 9.1 software. The percentage of collagen proportion area was calculated by dividing collagen tissue area by total tissue area.

[2] = system: Non-Alcoholic Steatohepatitis (NASH) in male C57BL/6 mice; experiment: Treatment of non-alcoholic steatohepatitis (NASH) in male C57BL/6 mice (streptozotocin + high-fat diet); format: in vivo; details: for hepatomegaly and liver to body weight ratio: 28 days of treatment, FIG. 3
Description: Example 15: Effect of Compound 5 and 7 in the Treatment of Non-Alcoholic Steatohepatitis (NASH) in Male C57BL/6 Mice
Timed pregnant mice (n=30) were selected for the study. The delivered pups were subcutaneously injected on the post-natal day 2 (PND-2) with 200 μg of Streptozotocin and were allowed to remain with the mother until they reached the weanling age. After weanling, the male pups were selected and fed with 60% kcal fat diet (Research Diet-D12492) for the next 2 weeks. All the animals were observed twice daily for clinical signs.
Mice were dosed with vehicle, test compounds and reference compound (elafibranor) twice daily morning (9.00 AM) and evening before the start of dark cycle (6:00 PM) from day 0 to 28.
Animal body weight measurements were made daily for the complete duration of the experiment.
Animals were dosed for 28 days (from week 6 to 10) with the test and reference compounds.
Blood glucose was estimated before the treatment start and on the termination day 28. Serum ALT and AST levels were measured from the plasma before the treatment start and on day 28.
Histopathology analysis including H&E staining, Masson's trichrome staining and Oil-Red-O (ORO) staining was performed for the liver tissues.
All the H&E stained tissue sections were examined by light microscopy. As per the below grading system (Kleiner et al., 2005) in 200× objective lens, NAFLD scoring was done for steatosis, lobular inflammation and hepatic ballooning.
All the Masson's trichrome stained tissue sections were examined by light microscopy in 100× objective lens. Randomly selected five fields (approx 684.85 μm×917.11 m per field) from each liver were subjected to collagen proportion area measurement by using Image Pro Premier 9.1 software. The percentage of collagen proportion area was calculated by dividing collagen tissue area by total tissue area.
All the Oil-Red-O stained tissue sections were examined by light microscopy in 100× objective lens. Randomly selected five fields (approximately 688.33 μm×922.45 μm per field) from each liver were subjected to measure stained area by using Image Pro Premier 9.1 software. The percentage of stained area was calculated by dividing lipid stained tissue area by total tissue area.

[3] = 3 mg/kg dose, twice daily, 28 days, H&E NAFLD scoring

Compound	IC50 (IL-1β) [nM]	Cell viability [1] [%]	further results
CN(C)S(=O)(=O)c1cnc(N2CCC(Oc3ccc(C(N)=O)nc3)CC2)c(Oc2ccc(OC(F)(F)F)cc2)c1 [Compound 9]	531	100	
Cc1ccc(=O)n(-c2ccccc2)c1 [Pirfenidone, reference compound]			BALF macrophage counts (Bleomycin-induced IPF; compared with Bleomycin control, Compound 7 p>0.05, Pirfenidone p<0.05, FIGS. 5A and 5B): reduced; % CPA (Collagen Proportion Area) (Bleomycin-induced IPF; lung, Masson's trichrome, in comparison with Bleomycin control, p<0.05, FIG. 6B): significant reduction; fibrosis score (H&E Ashcroft Score) (Bleomycin-induced IPF; lung, in comparison with Bleomycin control, p<0.05, FIG. 6A): significant reduction
CN(C)S(=O)(=O)c1cnc(N2CCC(Oc3ccc(C(N)=O)nc3)CC2)c(Oc2ccc3c(c2)CCO3)c1 [Compound 12]	2300	100	
Cc1ccc(Oc2cc(S(=O)(=O)N(C)C)cnc2N2CCC(Oc3ccc(C(N)=O)nc3)CC2)cc1 [Compound 10]	410	100	
CCOc1ccc(Oc2cc(S(C)(=O)=O)cnc2N2CCC(Oc3ccc(Cl)cc3)CC2)cc1 [Compound 11]	753	100	
CSc1ccc(C(=O)/C=C/c2cc(C)c(OC(C)(C)C(=O)O)c(C)c2)cc1 [Elafibranor, reference compound]			hepatomegaly and liver to body weight ratio [2]: hepatomegaly and increase in liver to body weight ratio

Now from value to compound, other results behind:

IC50 (IL-1β) [nM]	Compound	Cell viability [1] [%]	further results
29	CN(C)S(=O)(=O)c1cnc(N2CCC(Oc3ccc(Cl)cc3)CC2)c(Nc2ccc3c(c2)CCO3)c1 [Compound 2]	100	
337	CCOc1ccc(Oc2cc(S(=O)(=O)N(C)C)cnc2N2CCC(Oc3ccc(C(N)=O)nc3)CC2)cc1 [Compound 8]	100	
115	CN(C)S(=O)(=O)c1cnc(N2CCC(Oc3ccc(Cl)cc3)CC2)c(-c2ccc3c(c2)CCO3)c1 [Compound 1]	100	
28	CN(C)S(=O)(=O)c1cnc(N2CCC(Oc3ccc(Cl)cc3)CC2)c(Oc2ccc3c(c2)CCO3)c1 [Compound 5]	100	NAFLD activity score (NAS) ([2]; 3 mg/kg dose, twice daily, 28 days, FIG. 1): significant reduced NAS score than disease controls; hepatic ballooning [2, 3]: trend towards decreased; lobular inflammation in the liver [2, 3]: significantly reduced; steatosis in the liver [2, 3]: trend towards decreased; hepatomegaly and liver to body weight ratio [2]: did not show any hepatomegaly and increase in liver to body weight ratio; Serum AST levels ([2]; after 28 days of treatment, FIG. 2): significantly reduced
13	CN(C)S(=O)(=O)c1cnc(N2CCC(Oc3ccc(Cl)cc3)CC2)c(Nc2ccc3oc(CO)cc3c2)c1 [Compound 6]	100	
300	CCCOc1ccc(Nc2cc(S(=O)(=O)N(C)C)cnc2N2CCN(Cc3ccc(Cl)cc3)CC2)cc1 [Compound 4]	100	
121	CN(C)S(=O)(=O)c1cnc(N2CCC(Oc3ccc(Cl)cc3)CC2)c(Nc2ccc3c(c2)OCO3)c1 [Compound 3]	100	
